Ends that are not written are not given here.
Tests used:
[1] = molecular target: T1, rat ASIC1a (Rattus norvegicus, UniProt P55926); assay: Whole-cell current activation, rat ASIC1a in X. laevis oocytes; format: cell-based; conditions: for ASIC1a current amplitude, % of control pH 5.5 stimulus: n = 4
T1 construct: expressed in transfected cells; host or cells: Xenopus laevis oocytes (injected)
T1 sequence (P55926 1-526): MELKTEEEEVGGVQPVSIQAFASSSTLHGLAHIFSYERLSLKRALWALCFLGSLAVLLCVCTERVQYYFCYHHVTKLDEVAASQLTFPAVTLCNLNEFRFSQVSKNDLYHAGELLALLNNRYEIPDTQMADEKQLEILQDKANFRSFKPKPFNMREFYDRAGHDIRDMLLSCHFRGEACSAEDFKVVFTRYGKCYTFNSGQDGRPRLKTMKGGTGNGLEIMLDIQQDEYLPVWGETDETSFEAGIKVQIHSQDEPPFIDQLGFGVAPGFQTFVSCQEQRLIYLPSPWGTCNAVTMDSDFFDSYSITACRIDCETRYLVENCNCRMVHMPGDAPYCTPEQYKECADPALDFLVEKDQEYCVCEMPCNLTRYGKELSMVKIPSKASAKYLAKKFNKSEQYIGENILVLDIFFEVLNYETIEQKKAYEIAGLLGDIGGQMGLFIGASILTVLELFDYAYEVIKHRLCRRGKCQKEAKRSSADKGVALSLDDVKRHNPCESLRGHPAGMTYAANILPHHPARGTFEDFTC
Experimental: (§1) Oocytes expressed rASIC1a, rASIC1b, rASIC2a, and rASIC3 homomeric channels were prepared as described. Injected oocytes were kept for two–three days at 19 °C and then for up to seven days at 15 °C in ND-96 medium supplemented with gentamycin (50 μg·mL^−1) and containing (in mM): 96 NaCl, 2 KCl, 1.8 CaCl2, 1 MgCl2, and 10 HEPES titrated to pH 7.4 with NaOH. Electrophysiological recordings were performed using the GeneClamp500 amplifier (Axon Instruments, Inverurie, UK) at a holding potential of -50 mV. The data were filtered at 20 Hz and digitized at 100 Hz using the L780 AD converter (L-Card, Moscow, Russia). Microelectrodes were filled with 3 M KCl. The external bath solution was ND-96 with pH adjusted to 7.4/7.8 (10 mM HEPES) /8.5 (10 mM Tris). Nocistatin containing solutions were freshly prepared and buffered each experimental day in ND-96 bath solution (pH 7.4/7.8/8.5). Proton-activated currents through ASIC channels were elicited by application of ND-96, in which 10 mM of HEPES was substituted with 10 mM MES at pH 5.5/ 10 mM acetic acid at pH 4.5. The whole-cell recording was performed if a response to the control pH stimulus was stable in at least two replicates. Nocistatin-activated currents were elicited by application of nocistatin containing solutions with various concentrations of the peptide.
Extracellular solutions were applied using a computer-controlled valve system with a flow rate of 1 mL/min. The oocyte chamber volume was 80 µL. The validity of the application system for studying ASIC channels expressed in oocytes was confirmed in experiments by application of a Cl-free solution (containing (in mM): 130 NMDG, 1 MgGluc2, 2 KGluc, 5 HEPES) (pH 7.4). Fast application of proton/peptide-activating solution was performed at a flow rate of 1 mL/sec (the change of the bath solution occurred within 100 ms), followed by PC controlled flow stopping (from 5 to 15 s).
Analysis of electrophysiological data was performed using OriginPro 8.6 software (OriginLab, Northampton, MA, USA). Curves were fitted using different logistic equations:
(a) Usual logistic equation [33] F1(x) = A – A/(1 + (x/x0)^nH), where F1(x) is the current amplitude at nocistatin concentration x ([x]) (response at concentration x), A is the maximal current amplitude (or the maximum asymptote or the stabilized response for an infinite concentration), x0 is the value of [x] at which the function reach half their maximum value (the EC50 value), and nH is the Hill coefficient (slope factor or a level of cooperativity);
(b) Equation for the model of unequal sites occupation F2(x) = A/(1 + (x/EC501)^nH)*(1 + (x/EC502)), multiplication of two logistic equations where F2(x) is the current amplitude at nocistatin concentration x, A is the maximal current amplitude, [EC501] is the half-maximal concentration of nocistatin binding to pool of “cooperative” sites (or 0.5 probability of “cooperative” sites’ occupancy) and [EC502] is the half-maximal concentration of nocistatin binding to additional unequal site (or 0.5 probability of single site occupancy), and nH is the Hill coefficient (slope factor) for the pool of cooperative sites;
(d) The time course of curves’ decay was fitted using a mono-exponential equation: F4(x) = A1*e^(-x/τdes) + A0, where F4(x) is the current amplitude at the time point x, A1 is the maximal current amplitude, A0 is its steady-state value and τdes is the […].
(§2) All data are presented as mean ± SEM. The significance of normalized data differences was determined with a non-parametric Kruskal-Wallis ANOVA test with the significance level * p < 0.05 and ** p < 0.01; ns, non-significant.

[2] = molecular target: T2, rat ASIC3 (Rattus norvegicus, UniProt O35240); assay: Whole-cell current activation, rat ASIC3 in X. laevis oocytes; format: cell-based
T2 construct: expressed in transfected cells; host or cells: Xenopus laevis oocytes (injected)
T2 sequence (O35240 1-533): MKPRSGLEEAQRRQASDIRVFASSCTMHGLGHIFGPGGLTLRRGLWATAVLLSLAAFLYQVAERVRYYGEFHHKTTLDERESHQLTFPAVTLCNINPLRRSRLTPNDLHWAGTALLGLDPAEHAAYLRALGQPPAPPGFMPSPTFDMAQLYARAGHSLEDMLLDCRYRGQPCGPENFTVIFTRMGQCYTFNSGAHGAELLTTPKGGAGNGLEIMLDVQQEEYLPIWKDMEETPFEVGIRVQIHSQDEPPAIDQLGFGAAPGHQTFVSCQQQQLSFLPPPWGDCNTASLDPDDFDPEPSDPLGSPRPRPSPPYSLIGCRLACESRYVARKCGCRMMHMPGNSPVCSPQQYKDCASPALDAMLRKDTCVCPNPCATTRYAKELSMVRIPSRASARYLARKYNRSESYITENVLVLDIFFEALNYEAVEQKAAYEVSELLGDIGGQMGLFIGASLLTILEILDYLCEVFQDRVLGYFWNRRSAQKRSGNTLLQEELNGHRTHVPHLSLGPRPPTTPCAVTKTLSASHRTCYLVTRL
Experimental: as §1, with “The whole-cell recording was performed if a response to the control pH stimulus was stable in at least two replicates. Nocistatin-activated currents were elicited by application of nocistatin containing solutions with various concentrations of the peptide.” left out
as §2

MPRVRSVVQARDAEPEADAEPVADEADEVEQKQLQ [rNS]
ASIC1a current amplitude, % of control pH 5.5 stimulus ([1]; 1 mM nocistatin, conditioning pH 7.4): 95.5 ± 1.8% | ASIC1a current amplitude, % of control pH 5.5 stimulus ([1]; 1 mM nocistatin, conditioning pH 7.8): 89.5 ± 2.8% | ASIC1a current amplitude, % of control pH 5.5 stimulus ([1]; 1 mM nocistatin, conditioning pH 8.5): 86.7 ± 2.5% | Maximal activating effect versus response to a pH drop of 7.4–5.5 ([1]; 1 mM nocistatin, extracellular pH 7.4): comparable to the response to a pH drop of 7.4–5.5 | Acurrent, nocistatin versus protons ([1]; 1 mM rNS vs pH drop 7.4–5.5): did not differ between protons and nocistatin | tmax, nocistatin versus protons ([1]; 1 mM rNS vs pH drop 7.4–5.5): no differences | τdes (desensitization time constant) ([1]; 1 mM rNS, conditioning pH 7.4, mono-exponential fit, mean ± S.E. from 4–7 measurements): 1.4 ± 0.1 s | Hill coefficient (nH), integral current activation ([1]; integral current, equation F2, n = 5): 4.8 ± 0.7 | Hill coefficient (nH) of activation ([1]; peak amplitude, pH 7.4, equation F2, n = 5): 7.44 ± 0.95 | tmax greater than for protons by ([2]; 1 mM rNS vs pH drop 7.4–5.5, slower activation): ~ 49% | τdes (desensitization time constant) ([2]; 1 mM rNS, conditioning pH 7.4, mean ± S.E. from 4–7 measurements): 0.4 ± 0.1 s

Reference: article PMC6769468, “Endogenous Neuropeptide Nocistatin Is a Direct Agonist of Acid-Sensing Ion Channels (ASIC1, ASIC2 and ASIC3)” (Biomolecules, 2019)
